Laboratory results: the NIST ThermoML archive (doi:10.1016/j.fluid.2010.03.010)
Numbers after ± are expanded uncertainties.

Details: Liquid, Vibrating tube method

**Q.** What does the source list for `CCCC[n+]1ccn(C)c1.O=S(=O)([N-]S(=O)(=O)C(F)(F)F)C(F)(F)F`?
**A.** mass density (293.15 K, 100 kPa): 1441.8 ± 12 kg/m3; mass density (293.15 K, 101.33 kPa): 1441.34 ± 12 kg/m3; mass density (293.15 K, 250 kPa): 1441.9 ± 12 kg/m3; mass density (293.15 K, 500 kPa): 1442.1 ± 12 kg/m3; mass density (293.15 K, 1000 kPa): 1442.4 ± 12 kg/m3; mass density (293.15 K, 2000 kPa): 1443.2 ± 12 kg/m3; mass density (293.15 K, 4990 kPa): 1445.4 ± 12 kg/m3; mass density (293.15 K, 10000 kPa): 1449 ± 12 kg/m3; mass density (293.15 K, 15000 kPa): 1452.5 ± 12 kg/m3; mass density (293.15 K, 20000 kPa): 1456 ± 12 kg/m3; mass density (293.15 K, 25010 kPa): 1459.3 ± 12 kg/m3; mass density (293.15 K, 30000 kPa): 1462.6 ± 12 kg/m3; mass density (293.15 K, 35000 kPa): 1465.8 ± 12 kg/m3; mass density (293.15 K, 40000 kPa): 1469.1 ± 12 kg/m3; mass density (293.15 K, 45000 kPa): 1472.2 ± 12 kg/m3; mass density (293.15 K, 50000 kPa): 1475.3 ± 12 kg/m3; mass density (293.15 K, 55000 kPa): 1478.3 ± 12 kg/m3; mass density (293.15 K, 59970 kPa): 1481.3 ± 12 kg/m3; mass density (294.15 K, 101.33 kPa): 1440.37 ± 12 kg/m3; mass density (295.15 K, 101.33 kPa): 1439.4 ± 12 kg/m3; mass density (296.15 K, 101.33 kPa): 1438.43 ± 12 kg/m3; mass density (297.15 K, 101.33 kPa): 1437.46 ± 12 kg/m3; mass density (298.15 K, 101.33 kPa): 1436.5 ± 12 kg/m3; mass density (299.15 K, 101.33 kPa): 1435.53 ± 12 kg/m3; mass density (300.15 K, 101.33 kPa): 1434.57 ± 11 kg/m3; mass density (301.15 K, 101.33 kPa): 1433.61 ± 11 kg/m3; mass density (302.15 K, 101.33 kPa): 1432.64 ± 11 kg/m3; mass density (303.15 K, 100 kPa): 1432.3 ± 12 kg/m3; mass density (303.15 K, 101.33 kPa): 1431.69 ± 11 kg/m3; mass density (303.15 K, 250 kPa): 1432.4 ± 12 kg/m3; mass density (303.15 K, 500 kPa): 1432.6 ± 12 kg/m3; mass density (303.15 K, 1000 kPa): 1432.9 ± 12 kg/m3; mass density (303.15 K, 2000 kPa): 1433.7 ± 12 kg/m3; mass density (303.15 K, 5000 kPa): 1436 ± 12 kg/m3; mass density (303.15 K, 10000 kPa): 1439.7 ± 12 kg/m3; mass density (303.15 K, 15000 kPa): 1443.3 ± 12 kg/m3; mass density (303.15 K, 20000 kPa): 1446.8 ± 12 kg/m3; mass density (303.15 K, 25000 kPa): 1450.2 ± 12 kg/m3; mass density (303.15 K, 30000 kPa): 1453.6 ± 12 kg/m3; mass density (303.15 K, 34990 kPa): 1456.9 ± 12 kg/m3; mass density (303.15 K, 40000 kPa): 1460.2 ± 12 kg/m3; mass density (303.15 K, 45010 kPa): 1463.4 ± 12 kg/m3; mass density (303.15 K, 50000 kPa): 1466.5 ± 12 kg/m3; mass density (303.15 K, 54990 kPa): 1469.6 ± 12 kg/m3; mass density (303.15 K, 60010 kPa): 1472.7 ± 12 kg/m3; mass density (304.15 K, 101.33 kPa): 1430.73 ± 11 kg/m3; mass density (305.15 K, 101.33 kPa): 1429.77 ± 11 kg/m3; mass density (306.15 K, 101.33 kPa): 1428.82 ± 11 kg/m3; mass density (307.15 K, 101.33 kPa): 1427.86 ± 11 kg/m3; mass density (308.15 K, 101.33 kPa): 1426.9 ± 11 kg/m3; mass density (309.15 K, 101.33 kPa): 1425.95 ± 11 kg/m3; mass density (310.15 K, 101.33 kPa): 1425 ± 11 kg/m3; mass density (311.15 K, 101.33 kPa): 1424.05 ± 11 kg/m3; mass density (312.15 K, 101.33 kPa): 1423.1 ± 11 kg/m3; mass density (313.15 K, 100 kPa): 1422.8 ± 11 kg/m3; mass density (313.15 K, 101.33 kPa): 1422.15 ± 11 kg/m3; mass density (313.15 K, 250 kPa): 1422.9 ± 11 kg/m3; mass density (313.15 K, 500 kPa): 1423.1 ± 11 kg/m3; mass density (313.15 K, 1000 kPa): 1423.5 ± 11 kg/m3; mass density (313.15 K, 2000 kPa): 1424.3 ± 11 kg/m3; mass density (313.15 K, 5000 kPa): 1426.6 ± 11 kg/m3; mass density (313.15 K, 10000 kPa): 1430.4 ± 12 kg/m3; mass density (313.15 K, 15010 kPa): 1434.1 ± 12 kg/m3; mass density (313.15 K, 20010 kPa): 1437.7 ± 12 kg/m3; mass density (313.15 K, 25000 kPa): 1441.2 ± 12 kg/m3; mass density (313.15 K, 30000 kPa): 1444.7 ± 12 kg/m3; mass density (313.15 K, 34990 kPa): 1448 ± 12 kg/m3; mass density (313.15 K, 40000 kPa): 1451.4 ± 12 kg/m3; mass density (313.15 K, 45010 kPa): 1454.6 ± 12 kg/m3; mass density (313.15 K, 50010 kPa): 1457.9 ± 12 kg/m3; mass density (313.15 K, 55000 kPa): 1461 ± 12 kg/m3; mass density (313.15 K, 60000 kPa): 1464.1 ± 12 kg/m3; mass density (314.15 K, 101.33 kPa): 1421.2 ± 11 kg/m3; mass density (315.15 K, 101.33 kPa): 1420.25 ± 11 kg/m3; mass density (316.15 K, 101.33 kPa): 1419.3 ± 11 kg/m3; mass density (317.15 K, 101.33 kPa): 1418.36 ± 11 kg/m3; mass density (318.15 K, 101.33 kPa): 1417.41 ± 11 kg/m3; mass density (319.15 K, 101.33 kPa): 1416.47 ± 11 kg/m3; mass density (320.15 K, 101.33 kPa): 1415.53 ± 11 kg/m3; mass density (321.15 K, 101.33 kPa): 1414.58 ± 11 kg/m3; mass density (322.15 K, 101.33 kPa): 1413.64 ± 11 kg/m3; mass density (323.15 K, 100 kPa): 1413.5 ± 11 kg/m3; mass density (323.15 K, 101.33 kPa): 1412.7 ± 11 kg/m3; mass density (323.15 K, 250 kPa): 1413.6 ± 11 kg/m3; mass density (323.15 K, 500 kPa): 1413.8 ± 11 kg/m3; mass density (323.15 K, 1010 kPa): 1414.2 ± 11 kg/m3; mass density (323.15 K, 2000 kPa): 1415 ± 11 kg/m3; mass density (323.15 K, 4990 kPa): 1417.4 ± 11 kg/m3; mass density (323.15 K, 10010 kPa): 1421.3 ± 11 kg/m3; mass density (323.15 K, 14990 kPa): 1425.1 ± 11 kg/m3; mass density (323.15 K, 20010 kPa): 1428.8 ± 12 kg/m3; mass density (323.15 K, 24990 kPa): 1432.4 ± 12 kg/m3; mass density (323.15 K, 30010 kPa): 1435.9 ± 12 kg/m3; mass density (323.15 K, 35010 kPa): 1439.4 ± 12 kg/m3; mass density (323.15 K, 40000 kPa): 1442.8 ± 12 kg/m3; mass density (323.15 K, 45000 kPa): 1446.1 ± 12 kg/m3; mass density (323.15 K, 50000 kPa): 1449.4 ± 12 kg/m3; mass density (323.15 K, 55000 kPa): 1452.6 ± 12 kg/m3; mass density (323.15 K, 60000 kPa): 1455.8 ± 12 kg/m3; mass density (324.15 K, 101.33 kPa): 1411.76 ± 11 kg/m3; mass density (325.15 K, 101.33 kPa): 1410.82 ± 11 kg/m3; mass density (326.15 K, 101.33 kPa): 1409.88 ± 11 kg/m3; mass density (327.15 K, 101.33 kPa): 1408.94 ± 11 kg/m3; mass density (328.15 K, 101.33 kPa): 1408 ± 11 kg/m3; mass density (329.15 K, 101.33 kPa): 1407.06 ± 11 kg/m3; mass density (330.15 K, 101.33 kPa): 1406.12 ± 11 kg/m3; mass density (331.15 K, 101.33 kPa): 1405.19 ± 11 kg/m3; mass density (332.15 K, 101.33 kPa): 1404.25 ± 11 kg/m3; mass density (333.15 K, 100 kPa): 1404.2 ± 11 kg/m3; mass density (333.15 K, 101.33 kPa): 1403.32 ± 11 kg/m3; mass density (333.15 K, 250 kPa): 1404.3 ± 11 kg/m3; mass density (333.15 K, 500 kPa): 1404.5 ± 11 kg/m3; mass density (333.15 K, 1010 kPa): 1404.9 ± 11 kg/m3; mass density (333.15 K, 2000 kPa): 1405.8 ± 11 kg/m3; mass density (333.15 K, 4990 kPa): 1408.2 ± 11 kg/m3; mass density (333.15 K, 10000 kPa): 1412.3 ± 11 kg/m3; mass density (333.15 K, 14990 kPa): 1416.2 ± 11 kg/m3; mass density (333.15 K, 20010 kPa): 1420 ± 11 kg/m3; mass density (333.15 K, 25000 kPa): 1423.6 ± 11 kg/m3; mass density (333.15 K, 30010 kPa): 1427.3 ± 12 kg/m3; mass density (333.15 K, 34990 kPa): 1430.8 ± 12 kg/m3; mass density (333.15 K, 40010 kPa): 1434.3 ± 12 kg/m3; mass density (333.15 K, 45000 kPa): 1437.6 ± 12 kg/m3; mass density (333.15 K, 50000 kPa): 1441 ± 12 kg/m3; mass density (333.15 K, 54990 kPa): 1444.3 ± 12 kg/m3; mass density (333.15 K, 60000 kPa): 1447.5 ± 12 kg/m3; mass density (334.15 K, 101.33 kPa): 1402.39 ± 11 kg/m3; mass density (335.15 K, 101.33 kPa): 1401.45 ± 11 kg/m3; mass density (336.15 K, 101.33 kPa): 1400.52 ± 11 kg/m3; mass density (337.15 K, 101.33 kPa): 1399.59 ± 11 kg/m3; mass density (338.15 K, 101.33 kPa): 1398.66 ± 11 kg/m3; mass density (339.15 K, 101.33 kPa): 1397.73 ± 11 kg/m3; mass density (340.15 K, 101.33 kPa): 1396.8 ± 11 kg/m3; mass density (341.15 K, 101.33 kPa): 1395.87 ± 11 kg/m3; mass density (342.15 K, 101.33 kPa): 1394.94 ± 11 kg/m3; mass density (343.15 K, 100 kPa): 1395 ± 11 kg/m3; mass density (343.15 K, 101.33 kPa): 1394.01 ± 11 kg/m3; mass density (343.15 K, 250 kPa): 1395.1 ± 11 kg/m3; mass density (343.15 K, 500 kPa): 1395.3 ± 11 kg/m3; mass density (343.15 K, 1000 kPa): 1395.7 ± 11 kg/m3; mass density (343.15 K, 2000 kPa): 1396.6 ± 11 kg/m3; mass density (343.15 K, 4990 kPa): 1399.1 ± 11 kg/m3; mass density (343.15 K, 10010 kPa): 1403.3 ± 11 kg/m3; mass density (343.15 K, 14910 kPa): 1407.2 ± 11 kg/m3; mass density (343.15 K, 20000 kPa): 1411.2 ± 11 kg/m3; mass density (343.15 K, 24990 kPa): 1414.9 ± 11 kg/m3; mass density (343.15 K, 30010 kPa): 1418.7 ± 11 kg/m3; mass density (343.15 K, 34990 kPa): 1422.3 ± 11 kg/m3; mass density (343.15 K, 39990 kPa): 1425.8 ± 12 kg/m3; mass density (343.15 K, 45000 kPa): 1429.3 ± 12 kg/m3; mass density (343.15 K, 50000 kPa): 1432.7 ± 12 kg/m3; mass density (343.15 K, 55000 kPa): 1436.1 ± 12 kg/m3; mass density (343.15 K, 60000 kPa): 1439.4 ± 12 kg/m3; mass density (344.15 K, 101.33 kPa): 1393.09 ± 11 kg/m3
